biological target: T1, Human HPK1, catalytic domain (Homo sapiens, UniProt Q92918); assay: HPK1-SLP76 TR-FRET assay; assay type: biochemical; conditions: 75 pM HPK1, 10 uM ATP, 10 nM SLP76, 30 min compound pre-incubation
T1 construct: purchased Carna
T1 sequence (Q92918 1-346): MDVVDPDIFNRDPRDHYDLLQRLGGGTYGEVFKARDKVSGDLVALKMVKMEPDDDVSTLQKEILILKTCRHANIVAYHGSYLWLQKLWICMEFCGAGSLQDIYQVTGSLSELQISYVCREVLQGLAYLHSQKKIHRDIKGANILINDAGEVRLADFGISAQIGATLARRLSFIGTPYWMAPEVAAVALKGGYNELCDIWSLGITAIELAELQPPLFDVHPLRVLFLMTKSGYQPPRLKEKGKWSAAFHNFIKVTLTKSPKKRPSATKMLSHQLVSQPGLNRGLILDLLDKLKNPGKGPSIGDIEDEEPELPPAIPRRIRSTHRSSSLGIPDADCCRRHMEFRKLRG

Compound | IC50
COc1cc2c(cc1Nc1ncc(C(N)=O)c(NC3CCC(c4ccccc4)C3)n1)CN(C)CC2 (stereo not drawn) [Example 26-12, 2-[(6-methoxy-2-methyl-1,2,3,4-tetrahydroisoquinolin-7-yl)amino]-4-[(3-phenylcyclopentyl)amino]pyrimidine-5-carboxamide] | 18.1 nM
COC(=O)C1CC2CC(CC(Nc3nc(Nc4cc5c(cc4OC)CCN(C)C5)ncc3C(N)=O)C2)C1 (stereo not drawn) [Example 26-13, methyl 7-({5-carbamoyl-2-[(6-methoxy-2-methyl-1,2,3,4-tetrahydroisoquinolin-7-yl)amino]pyrimidin-4-yl}amino)bicyclo[3.3.1]nonane-3-carboxylate] | 0.6 nM
COc1cc2c(cc1Nc1ncc(C(N)=O)c(NC3C[C@@H]4CC[C@H]3C4)n1)CN(C)CC2 (stereo partly drawn) [Example 26-14, 4-{[(1S,4R)-bicyclo[2.2.1]heptan-2-yl]amino}-2-[(6-methoxy-2-methyl-1,2,3,4-tetrahydroisoquinolin-7-yl)amino]pyrimidine-5-carboxamide] | 0.14 nM
COc1cc2c(cc1Nc1ncc(C(N)=O)c(NC3CC4C5CCC(C5)C34)n1)CN(C)CC2 (stereo not drawn) [Example 26-15, 2-[(6-methoxy-2-methyl-1,2,3,4-tetrahydroisoquinolin-7-yl)amino]-4-[(tricyclo[4.2.1.0~2,5~]nonan-3-yl)amino]pyrimidine-5-carboxamide] | 0.25 nM
COc1cc2c(cc1Nc1ncc(C(N)=O)c(NC3CCC(C(F)(F)F)CC3)n1)CN(C)CC2 (stereo not drawn) [Example 26-16, 2-[(6-methoxy-2-methyl-1,2,3,4-tetrahydroisoquinolin-7-yl)amino]-4-{[4-(trifluoromethyl)cyclohexyl]amino}pyrimidine-5-carboxamide] | 11.9 nM
COc1cc2c(cc1Nc1ncc(C(N)=O)c(N[C@H]3CC[C@@H](N(C)C)CC3)n1)CN(C)CC2 [Example 26-17, 4-{[cis-4-(dimethylamino)cyclohexyl]amino}-2-[(6-methoxy-2-methyl-1,2,3,4-tetrahydroisoquinolin-7-yl)amino]pyrimidine-5-carboxamide] | 60.2 nM
COc1cc2c(cc1Nc1ncc(C(N)=O)c(NCc3ccccc3OC(F)(F)F)n1)CN(C)CC2 [Example 26-18, 2-[(6-methoxy-2-methyl-1,2,3,4-tetrahydroisoquinolin-7-yl)amino]-4-({[2-(trifluoromethoxy)phenyl]methyl}amino)pyrimidine-5-carboxamide] | 0.57 nM
COc1cc2c(cc1Nc1ncc(C(N)=O)c(N[C@@H](C)c3cccc(F)c3F)n1)CN(C)CC2 [Example 26-19, 4-{[(1S)-1-(2,3-difluorophenyl)ethyl]amino}-2-[(6-methoxy-2-methyl-1,2,3,4-tetrahydroisoquinolin-7-yl)amino]pyrimidine-5-carboxamide] | 2.49 nM
COc1cc2c(cc1Nc1ncc(C(N)=O)c(N[C@H](C)c3cccc(F)c3F)n1)CN(C)CC2 [Example 26-20, 4-{[(1R)-1-(2,3-difluorophenyl)ethyl]amino}-2-[(6-methoxy-2-methyl-1,2,3,4-tetrahydroisoquinolin-7-yl)amino]pyrimidine-5-carboxamide] | 0.45 nM
COc1cc2c(cc1Nc1ncc(C(N)=O)c(NCc3ccccc3C(F)(F)F)n1)CN(C)CC2 [Example 26-21, 2-[(6-methoxy-2-methyl-1,2,3,4-tetrahydroisoquinolin-7-yl)amino]-4-({[2-(trifluoromethyl)phenyl]methyl}amino)pyrimidine-5-carboxamide] | 0.22 nM
COc1cc2c(cc1Nc1ncc(C(N)=O)c(NC(C)c3ccccc3C(F)(F)F)n1)CN(C)CC2 (stereo not drawn) [Example 26-22, 2-[(6-methoxy-2-methyl-1,2,3,4-tetrahydroisoquinolin-7-yl)amino]-4-({1-[2-(trifluoromethyl)phenyl]ethyl}amino)pyrimidine-5-carboxamide] | 1.43 nM
CCOc1ccccc1CNc1nc(Nc2cc3c(cc2OC)CCN(C)C3)ncc1C(N)=O [Example 26-23, 4-{[(2-ethoxyphenyl)methyl]amino}-2-[(6-methoxy-2-methyl-1,2,3,4-tetrahydroisoquinolin-7-yl)amino]pyrimidine-5-carboxamide] | 3.69 nM

Reference: patent publication US20230416225A1, “DIAMINOPYRIMIDINE CARBOXAMIDE INHIBITORS OF HPK1” (MERCK SHARP & DOHME LLC, priority 2020, published 2023)
